For assay [1], the system named is adherent cells from human PBMC. The assay can be described thus: TNF-α production by adherent cells from human PBMC, ELISA of supernatants. The format is cell-based. The method, then: (§1) The amount of Type I interferon (IFN) and tumor necrosis factor-α (TNF-α) produced by the cells in response to the treatment is also recorded in Table I.
(§2) Briefly, adherent cells from human PBMC were treated with 1-100 U/mL recombinant IFN-α (Lee BioMolecular, San Diego, Calif.) for 24 hours, washed, and then treated with IRM (a concentrated solution of IRM in cell culture medium was added to reach the final concentration indicated in Table I) for an additional 24 hours. A separate group of control cells were treated only with IRM for 24 hours. Cell-free supernatants were then isolated from all of the cultures and analyzed for Type I IFN or TNF-α.
(§3) Type I IFN production was assayed using a virus neutralization bioassay using A549 human lung carcinoma cells challenged with encephalomyocarditis. The details of the bioassay method have been described by G. L. Brennan and L. H. Kronenberg in “Automated Bioassay of Interferons in Micro-test Plates”, Biotechniques, June/July, 78, 1983, incorporated herein by reference. Briefly stated the method is as follows: A549 cells are incubated with dilutions of samples or a standard interferon at 37° C. for 24 hours. The incubated cells are then infected with an inoculum of encephalomyocarditis virus. The infected cells are incubated for an additional 24 hours at 37° C. before evaluating for viral cytopathic effect. The viral cytopathic effect is quantified by staining with crystal violet followed by visual scoring of the plates. Results are expressed as IFN-α reference units/mL based on the value obtained for NIH Human Leukocyte IFN standard. TNF-α production was determined by ELISA (Biosource International, Inc., Camarillo, Calif.).
(§4) Adherent cells are obtained and prepared as described in Example 1. The cells are pre-treated as described in Example 1 with either poly(I:C), recombinant IFN-γ, recombinant IFN-α, or receive no pre-treatment. The cells are washed as described in Example 1, then treated as described in Example 1 with either IRM1, IRM2, IRM3, IRM4, IRM5, IRM6, IRM7, IRM8, or IRM9 for 24 hours.
(§5) Cell free supernatants are isolated from all of the cultures and analyzed for Type I IFN or TNF-α.
(An ELISA detects its analyte on a solid surface through an enzyme-linked reagent.)

The subject of assay [2] is adherent cells from human PBMC. Nature of the assay: Type I IFN production by adherent cells from human PBMC, virus neutralization bioassay of supernatants. The format is cell-based. The method, then: as §1, §2, §3, §4, §5
[3] abbreviates: IRM1 0.3 μM for 24 hours after pre-treatment with 1-100 U/mL recombinant IFN-α for 24 hours, washed.
Where [4] appears, read: IRM1 0.3 μM for 24 hours, no pre-treatment.
Setting [5] is: IRM1 3.0 μM for 24 hours after pre-treatment with 1-100 U/mL recombinant IFN-α for 24 hours, washed.
The mark [6] stands for this setting: IRM1 3.0 μM for 24 hours, no pre-treatment.

With `Cc1nc2c(N)nc3ccccc3c2n1CC(C)(C)O` [IRM1, 4-amino-α,α,2-trimethyl-1H-imidazo[4,5-c]quinoline-1-ethanol], the TNF-α in assay [1] (setting [3]) was found to be 114 pg/mL; in assay [1] (setting [4]) it was 437 pg/mL; in assay [1] (setting [5]), 284 pg/mL; in assay [1] (setting [6]), 3295 pg/mL. Moreover, the IFN-α in assay [2] (setting [3]) is reported as 3,788 U/mL; in assay [2] (setting [4]), 5 U/mL; in assay [2] (setting [5]), 3,788 U/mL; in assay [2] (setting [6]), 5 U/mL.

The values above are taken from US20050239735A1, “Enhancement of immune responses” (3M Innovative Properties Company, priority 2003, published 2005).
